Results: EPA's ToxValDB 9.5 (doi:10.2903/j.efsa.2005.32ar)
≈ marks a conversion by molar mass, not a printed value.

Assays:
[1] = system: Anas platyrhynchos; conditions: short-term; oral; feed; mortality
[2] = system: Apis mellifera; conditions: acute; duration: 48 hours; dermal; mortality
[3] = system: Bibionidae; conditions: chronic/long-term; development
[4] = system: Canidae; conditions: chronic; duration: 6 months; oral; Dog Other; clinical signs
[5] = system: Colinus virginianus
[6] = system: Daphnia magna; conditions: chronic/long-term; duration: 21 days; reproduction
[7] = system: Mus musculus
[8] = system: Oncorhynchus mykiss
[9] = system: Rattus norvegicus; conditions: reproduction developmental
[10] = system: Tagia sp.; conditions: acute; mortality
[11] = system: Aphidius rhopalosiphi; test: LR50; higher = less toxic; conditions: acute; duration: 48 hours; mortality

For `COP(=S)(OC)Oc1c(Cl)cc(C)cc1Cl` [Tolclofos-methyl], the LC50 [1] was over 1620 mg/kg-day, the LD50 [2] was over 100 µg/piece and the NOEC [3] was 0.25 mg/L. For the same compound, the NOAEL [4] was 21 mg/kg-day, the LD50 ([5]; acute, oral, mortality) was over 5000 mg/kg and the NOEL ([5]; reproduction developmental) was 49 mg/kg-day. The NOEC [6] was 0.026 mg/L, the LD50 ([7]; acute, oral, mortality) was 3500 mg/kg and the NOAEL ([7]; chronic, duration: 2 years, clinical signs) was 6.4 mg/kg-day. The LC50 ([8]; acute, duration: 96 hours, mortality) was 0.69 µg/mL (≈ 2.29 µM), the NOEC ([8]; chronic/long-term, duration: 97 days, growth) was 0.012 mg/L and the NOEC [9] was 70.6 mg/kg-day. For the same compound, the LC50 [10] was over 1000 mg/kg and the LR50 [11] was 43.7 g/ha.
